Data on three compounds can be found in patent US20240240126A1, “Microfluidic Barcode-Like Cell Sensor For Microscope-Free Quantitative Detection Of Small Amount Of Cells” (Hong Kong Baptist University, priority 2021, published 2024).

≈ marks a conversion by molar mass, not a printed value.

One assay concerns Isolate 5. Put plainly: Broth microdilution AST of drinking water isolate. To be noted: Isolate 5 from drinking water samples. Details: key: R stands for resistant. The assay is classed as cell-based, Staphylococcus epidermidis. The protocol:
(§1) All tested samples were collected between June 2019 to November 2019 according to the guidelines from ISO 18593:2018 Microbiology of the food chain—Horizontal methods for surface sampling. Also, all of the samples were collected from the drinking fountains in government venues and university facilities, at ten different locations. As said, the surface of the outlet for the drinking fountains was tested by swabbing. In simple words, the surfaces of the drinking fountain's outlet were rubbed by a single use sterilize cotton swab and swished into the Lysogeny broth (LB) broth solution for 1 minute to prepare the sample solutions. Collected samples were kept at 4° C. during the transportation and enriched for 12-14 hours under 37° C. After the enrichment for bacteria, the sample suspensions were spread and streaked onto the LB agar for further bacterial isolation and AST uses. […] If an ID is needed, dilution plating can be used. Besides, antifungals and algal inhibitors can also be added into these samples to against and inhibit the growth of fungi, yeast, and algae.
(§2) All tested samples were collected from drinking fountains at ten different locations in various government venues and university facilities. Sample containers were kept sterile before use in sample collection; the collected samples were kept at 4° C. and analyzed within 24 hours of collection. Sample collection was conducted 3 times for each sampling site and the antimicrobial susceptibility of each sample was tested 3 times. (FIG. 5) Bacterial identification for the real samples was made through the use of Matrix-Assisted Laser Desorption Ionization Time of Flight Imaging Mass Spectrometry (MALDI-TOF IMS). 1 uL of the sample was pipetted onto an Indium tin oxide (ITO) coated glass slide and allowed to dry on a hotplate; the ITO slide with bacteria was then analyzed by MALDI-TOF IMS immediately following matrix application. (FIG. 6, Table 2)
(§3) The broth microdilution (BMD) testing of the samples was performed exactly the same according to the approved standard from CLSI and the procedures described in Nature Protocol. To perform the BMD test, both LB broth medium and the antibiotics were added into the 96-wells microplate. By using a two-fold dilution, a concentration gradient of the antibiotic is generated from 128 μg/mL to 0.125 μg/mL. […] To assess the MIC values for the samples, the microplates were examined visually and the lowest concentration of the antibiotic which prevents visible growth of the bacteria was recorded as the MIC value of that sample. […]
On the technique in general: Dilution methods test growth across graded concentrations, often in twofold steps.

A further assay deals with Isolate 1. Nature of the assay: Broth microdilution AST of drinking water isolate. The assay is classed as cell-based, Staphylococcus epidermidis. Details: key: R stands for resistant. To be noted: Isolate 1 from drinking water samples. The protocol: as §1, §2, §3
For assay [1], the system named is E. coli. To be noted: CLSI reference range; cited from earlier work.
For another assay, the system named is Isolate 3. Put plainly: Broth microdilution AST of drinking water isolate. The assay is classed as cell-based, Staphylococcus capitis. Details: key: R stands for resistant. As to conditions: Isolate 3 from drinking water samples. The protocol:
as §1, §2
(§4) The broth microdilution (BMD) testing of the samples was performed exactly the same according to the approved standard from CLSI and the procedures described in Nature Protocol. To perform the BMD test, both LB broth medium and the antibiotics were added into the 96-wells microplate. By using a two-fold dilution, a concentration gradient of the antibiotic is generated from 128 μg/mL to 0.125 μg/mL. The bacteria isolates identified inside the samples have been enriched under 37° C. for 8-12 hrs in order to achieve 5×10^6 CFU/mL before the test, 10 uL of the bacterial suspension was inoculated into the broth to achieve a final concentration of bacteria in 5×10^5 CFU/mL. The inoculated microplates were incubated at 37° C. for 16-20 hrs for further inspection. To assess the MIC values for the samples, the microplates were examined visually and the lowest concentration of the antibiotic which prevents visible growth of the bacteria was recorded as the MIC value of that sample. Meanwhile, Mueller Hinton broth was also used to perform the BMD for cross checking purpose; both of the AST results are consistence with the MIC quality control range recommended by CLSI.
(§5) Based on the findings in the present disclosure, multiple bacterial species have been recognized in the testing samples, including bacterial species that have the potential to form biofilm and colonize on the surface of the water dispenser (Table 2). Traditional broth microdilution AST was also performed to verify the AMR assessment results of the present sensor according to the approved standard from CLSI (FIGS. 27A and 27B, Table 4). […] As AMR microbes can exist in the environment all around us, close enough to come into contact with in daily life, they may pose a significant threat to the effective treatment of bacterial infections in the near future if no action is taken. […]

The next assay deals with Isolate 8. Put plainly: Broth microdilution AST of drinking water isolate. The assay is classed as cell-based, Staphylococcus capitis. Details: key: R stands for resistant. To be noted: Isolate 8 from drinking water samples. The procedure:
as §1, §2, §4, §5

The next assay concerns Isolate 4. Put plainly: Broth microdilution AST of drinking water isolate. The assay is classed as cell-based, Staphylococcus capitis. Details: key: R stands for resistant. To be noted: Isolate 4 from drinking water samples. The procedure: as §1, §2, §4, §5
Assay [2] concerns S. aureus. As to conditions: CLSI reference range; cited from earlier work.
Another assay has as its system mixed bacteria sample. Nature of the assay: Broth microdilution AST of mixed bacteria sample. The assay is classed as cell-based. The protocol:
as §4
(§6) According to the AST results of the present disclosure, all those identified isolates (isolates 1-8) have shown susceptibility to Gentamicin where all of them are resistant to Ampicillin at the same time. […]

For assay [3], the system named is identified isolates (isolates 1-8). Nature of the assay: AST of the identified drinking water isolates, overall statement. The assay is classed as cell-based. As to conditions: all identified isolates 1-8. The procedure: as §4, §6
A further assay concerns Isolate 7. Put plainly: Broth microdilution AST of drinking water isolate. Details: key: R stands for resistant. The assay is classed as cell-based, Citrobacter youngae. To be noted: Isolate 7 from drinking water samples. The procedure:
as §1, §2, §4, §5

The next assay relates to Isolate 6. Nature of the assay: Broth microdilution AST of drinking water isolate. Details: key: R stands for resistant. The assay is classed as cell-based, Citrobacter youngae. To be noted: Isolate 6 from drinking water samples. The protocol: as §1, §2, §4, §5
A further assay deals with Isolate 2. Nature of the assay: Broth microdilution AST of drinking water isolate. The assay is classed as cell-based, Citrobacter youngae. As to conditions: Isolate 2 from drinking water samples. Set-up: key: R stands for resistant. The procedure:
as §1, §2, §4, §5

In assay [4] the test system is E. coli. Put plainly: Broth microdilution AST. The assay is classed as cell-based, Escherichia coli (ATCC 25922). The procedure:
(§7) To conduct an AST on the PP-based AST chip, bacteria were pre-activated inside an incubator for 15 minutes at 37° C. before use. At the beginning of a test, the bacteria are injected through Inlet 3; the injection of the bacteria was monitored under the fluorescence microscope (FIG. 24A). After the bacteria were inoculated into the cultivation chambers, antibiotic-doped media and media alone are injected into inlet 1 and inlet 2 at a rate of 1 μL/minute, respectively (FIG. 24B). The AST chip was then incubated on a thermostat platform at 37° C. for 2 hours. To assess AMR, the bacteria inside the culture chambers of the PP AST chip were flushed into the barcode cell sensor at a rate of 1 μL/minute. […] For comparison, AST was also performed using the traditional broth microdilution method as shown in FIG. 27; the MIC values of the bacteria were assessed as the lowest concentration of antibiotics with no visible growth of bacteria.
(§8) The broth microdilution (BMD) testing of the samples was performed exactly the same according to the approved standard from CLSI and the procedures described in Nature Protocol. […] To assess the MIC values for the samples, the microplates were examined visually and the lowest concentration of the antibiotic which prevents visible growth of the bacteria was recorded as the MIC value of that sample.

Assay [5] relates to S. aureus. Nature of the assay: Broth microdilution AST. The assay is classed as cell-based, Staphylococcus aureus (ATCC 29213). The protocol: as §7, §8
Assay [6] relates to S. aureus. Nature of the assay: AST with the present barcode cell sensor (PP microfluidic AST chip). The assay is classed as cell-based, Staphylococcus aureus (ATCC 29213). The procedure:
To conduct an AST on the PP-based AST chip, bacteria were pre-activated inside an incubator for 15 minutes at 37° C. before use. At the beginning of a test, the bacteria are injected through Inlet 3; the injection of the bacteria was monitored under the fluorescence microscope (FIG. 24A). After the bacteria were inoculated into the cultivation chambers, antibiotic-doped media and media alone are injected into inlet 1 and inlet 2 at a rate of 1 μL/minute, respectively (FIG. 24B). The AST chip was then incubated on a thermostat platform at 37° C. for 2 hours. To assess AMR, the bacteria inside the culture chambers of the PP AST chip were flushed into the barcode cell sensor at a rate of 1 μL/minute. Gram staining agent was used during the flushing process to make bacteria inside the barcode cell sensor visible be captured by a cell phone camera. For comparison, AST was also performed using the traditional broth microdilution method as shown in FIG. 27; the MIC values of the bacteria were assessed as the lowest concentration of antibiotics with no visible growth of bacteria.

Assay [7] has as its system E. coli. The description is as above. The assay is classed as cell-based, Escherichia coli (ATCC 25922). The procedure: as §7
As said, the bacteria samples have been flushed into the “barcode” cell sensor after 2 hours incubation, the accumulated bacteria bars with different lengths will be formed. […] Thus, the MIC value of the samples can be assessed by looking at the point (in a specific concentration of a given antibiotic) of the bacterial growth with significant differences using the comparison of the log [slope] values. […]

As to `CC1(C)S[C@@H]2[C@H](NC(=O)[C@H](N)c3ccccc3)C(=O)N2[C@H]1C(=O)O` [Ampicillin], the “AST result (MIC)” value in the assay with Isolate 5, in the assay with Isolate 1, in the assay on Isolate 3, in the assay with Isolate 8, with Isolate 4 and in the assay with Isolate 7 was “R” throughout. Besides, the “AST result (MIC)” value with Isolate 6 and in the assay with Isolate 2 was “R” throughout. Also, the results for the MIC-CLSI with E. coli [1] and with S. aureus [2] were 2 to 8 µg/mL and 0.5 to 2 µg/mL, respectively. Further, the “AST result in words” value in the assay with mixed bacteria sample (FIG. 27B) is on record as “resistance”. In addition, the “AST result in words (susceptibility / resistance)” value in assay [3] was “resistant”.

On to `CC[C@H]1OC(=O)[C@H](C)[C@@H](O[C@H]2C[C@@](C)(OC)[C@@H](O)[C@H](C)O2)[C@H](C)[C@@H](O[C@@H]2O[C@H](C)C[C@H](N(C)C)[C@H]2O)[C@](C)(O)C[C@@H](C)C(=O)[C@H](C)[C@@H](O)[C@]1(C)O` [Erythromycin, erythromycin], for which the “MIC-Broth Microdilution” value in the assay with E. coli [4] is listed as “Resistant”. The MIC against S. aureus [5] (Staphylococcus aureus) is 0.25 to 1 µg/mL (≈ 0.341 to 1.36 µM); against S. aureus [6] (Staphylococcus aureus) it was 0.4 to 0.6 µg/mL (≈ 0.545 to 0.818 µM). Besides, the “MIC-"barcode" Chip” value in the assay with E. coli [7] is reported as “Resistant”. Besides, the MIC-CLSI entry was “Resistant” in the assay with E. coli [1] and 0.25 to 1 µg/mL with S. aureus [2].

As to Gentamicin, the “MIC-Broth Microdilution” value in the assay with E. coli [4] and with S. aureus [5] was 0.25 to 0.5 µg/mL each time. For the same compound, the “MIC-"barcode" Chip” value against S. aureus [6] lay within 0.25 to 0.5 µg/mL. The “AST result (MIC)” value in the assay on Isolate 5 was 4 µg/mL; in the assay on Isolate 1, 4 µg/mL; in the assay on Isolate 3, 16 µg/mL; in the assay on Isolate 8, 16 to 32 µg/mL; in the assay with Isolate 4 it was 16 to 32 µg/mL; in the assay with Isolate 7, 16 to 32 µg/mL. Further, the “AST result (MIC)” value in the assay with Isolate 6 was 2 to 4 µg/mL; with Isolate 2, 16 µg/mL. The values for the MIC-CLSI with E. coli [1] and in the assay with S. aureus [2] were 0.25 to 1 µg/mL and 0.12 to 1 µg/mL, respectively. For the same compound, the MIC value against mixed bacteria sample (FIG. 27A) lay in the range of 4 to 8 µg/mL. Also, in assay [3], the “AST result in words (susceptibility / resistance)” value is listed as “susceptibility”.

A word on the MIC: it is the lowest concentration that inhibits growth of the organism.
